Results taken from patent US20240390352A1, “PHARMACEUTICAL COMPOSITION FOR PREVENTING OR TREATING CANCER COMPRISING CARNITINE ACYLCARNITINE CARRIER INHIBITOR AND ANTITUMOR AGENT” (NEW CANCER CURE - BIO CO.,LTD., priority 2021, published 2024).

Tests used:
Type in all cases: cell-based
UACC62 cells = experiment: SRB assay cancer cell growth rate, UACC62; settings: relative to control (100%), 48 hours, KN510 200 μM, irinotecan 2.5 μM, 5-FU 5 μM, gemcitabine 2.5 μM, paclitaxel 10 nM, cisplatin 1 μM, alone or KN510 + anticancer drug
OVCAR-8 cells = experiment: SRB assay cancer cell growth rate, OVCAR-8; settings: relative to control (100%), 48 hours, KN510 200 μM, irinotecan 2.5 μM, 5-FU 5 μM, gemcitabine 2.5 μM, paclitaxel 10 nM, cisplatin 1 μM, alone or KN510 + anticancer drug
HCT-116 cells = experiment: SRB assay cancer cell growth rate, HCT-116; settings: relative to control (100%), 48 hours, KN510 200 μM, irinotecan 2.5 μM, 5-FU 5 μM, gemcitabine 2.5 μM, paclitaxel 10 nM, cisplatin 1 μM, alone or KN510 + anticancer drug
[1] = tested on: renal cell carcinoma cell lines CAKI-1 and ACHN cells; experiment: Synergistic effect of omeprazole and anticancer drug, renal cancer cell lines; settings: anticancer drug combined with omeprazole (KN510) versus each treatment alone
[2] = tested on: breast cancer cells, MDA-MB-231 cells and MCF-7 cells; experiment: Synergistic effect of omeprazole and anticancer drug, breast cancer cells; settings: anticancer drug combined with omeprazole (KN510) versus each treatment alone
[3] = tested on: leukemia cells, SR cells and K562 cells; experiment: Synergistic effect of omeprazole and anticancer drug, leukemia cells; settings: anticancer drug combined with omeprazole (KN510) versus each treatment alone
PC-3 cells = experiment: SRB assay cancer cell growth rate, PC-3; settings: relative to control (100%), 48 hours, KN510 200 μM, irinotecan 2.5 μM, 5-FU 5 μM, gemcitabine 2.5 μM, paclitaxel 10 nM, cisplatin 1 μM, alone or KN510 + anticancer drug
[4] = tested on: liver cancer cell lines SK-HEP-1 cells and Huh-7 cells; experiment: Synergistic effect of omeprazole and anticancer drug, liver cancer cell lines; settings: anticancer drug combined with omeprazole (KN510) versus each treatment alone
UACC257 cells = experiment: SRB assay cancer cell growth rate, UACC257; settings: relative to control (100%), 48 hours, KN510 200 μM, irinotecan 2.5 μM, 5-FU 5 μM, gemcitabine 2.5 μM, paclitaxel 10 nM, cisplatin 1 μM, alone or KN510 + anticancer drug
[5] = tested on: prostate cancer cells, PC-3 cells and DU-145 cells; experiment: Synergistic effect of omeprazole and anticancer drug, prostate cancer cells; settings: anticancer drug combined with omeprazole (KN510) versus each treatment alone
SR cells = experiment: SRB assay cancer cell growth rate, SR; settings: relative to control (100%), 48 hours, KN510 200 μM, irinotecan 2.5 μM, 5-FU 5 μM, gemcitabine 2.5 μM, paclitaxel 10 nM, cisplatin 1 μM, alone or KN510 + anticancer drug
[6] = tested on: pancreatic ductal adenocarcinoma (PDAC) cell lines, MIA PaCa-2 cells and PANC-1 cells; experiment: Synergistic effect of omeprazole and anticancer drug, pancreatic cancer cell lines; settings: anticancer drug combined with omeprazole (KN510) versus each treatment alone
K562 cells = experiment: SRB assay cancer cell growth rate, K562; settings: relative to control (100%), 48 hours, KN510 200 μM, irinotecan 2.5 μM, 5-FU 5 μM, gemcitabine 2.5 μM, paclitaxel 10 nM, cisplatin 1 μM, alone or KN510 + anticancer drug
[7] = tested on: glioblastoma (GBM) cell lines, U-87 MG cells and T87G cells; experiment: Synergistic effect of omeprazole and anticancer drug, glioblastoma cell lines; settings: anticancer drug combined with omeprazole (KN510) versus each treatment alone
[8] = tested on: A549 and H23 lung cancer cells; experiment: Synergistic effect of omeprazole and anticancer drug, lung cancer cells; settings: anticancer drug combined with omeprazole (KN510) versus each treatment alone
[9] = tested on: colon cancer cell lines HCT-116 cells and COLO-205 cells; experiment: Synergistic effect of omeprazole and anticancer drug, colon cancer cell lines; settings: anticancer drug combined with omeprazole (KN510) versus each treatment alone
[10] = tested on: melanoma cell lines UACC62 cells and UACC257 cells; experiment: Synergistic effect of omeprazole and anticancer drug, melanoma cell lines; settings: anticancer drug combined with omeprazole (KN510) versus each treatment alone
[11] = tested on: MKN-28 cells and AGS cells, stomach cancer cells; experiment: Synergistic effect of omeprazole and anticancer drug, stomach cancer cells; settings: anticancer drug combined with omeprazole (KN510) versus each treatment alone
ACHN cells = experiment: SRB assay cancer cell growth rate, ACHN; settings: relative to control (100%), 48 hours, KN510 200 μM, irinotecan 2.5 μM, 5-FU 5 μM, gemcitabine 2.5 μM, paclitaxel 10 nM, cisplatin 1 μM, alone or KN510 + anticancer drug
CAKI-1 cells = experiment: SRB assay cancer cell growth rate, CAKI-1; settings: relative to control (100%), 48 hours, KN510 200 μM, irinotecan 2.5 μM, 5-FU 5 μM, gemcitabine 2.5 μM, paclitaxel 10 nM, cisplatin 1 μM, alone or KN510 + anticancer drug
[12] = tested on: ovarian cancer cells, OVCAR-8 cells and SK-OV-3 cells; experiment: Synergistic effect of omeprazole and anticancer drug, ovarian cancer cells; settings: anticancer drug combined with omeprazole (KN510) versus each treatment alone
A549 cells = experiment: SRB assay cancer cell growth rate, A549; settings: relative to control (100%), 48 hours, KN510 200 μM, irinotecan 2.5 μM, 5-FU 5 μM, gemcitabine 2.5 μM, paclitaxel 10 nM, cisplatin 1 μM, alone or KN510 + anticancer drug

## CCc1c2c(nc3ccc(OC(=O)N4CCC(N5CCCCC5)CC4)cc13)-c1cc3c(c(=O)n1C2)COC(=O)[C@]3(O)CC [Irinotecan]
UACC62 cells
  UACC62 growth rate average (%): −35.63%
OVCAR-8 cells
  OVCAR-8 growth rate average (%): 4.70%
HCT-116 cells
  HCT-116 growth rate average (%): 41.85%
[1]
  synergistic effect of omeprazole and an anticancer drug in combination, renal cell carcinoma: Positive effect
[1]; listed as irinotecan
  synergistic effect of omeprazole and an anticancer drug in combination, renal cell carcinoma: significantly inhibited
[2]
  synergistic effect of omeprazole and an anticancer drug in combination, breast cancer: Positive effect
[2]; listed as irinotecan
  synergistic effect of omeprazole and an anticancer drug in combination, breast cancer: significantly inhibited
[3]
  synergistic effect of omeprazole and an anticancer drug in combination, leukemia: Positive effect
[3]; listed as irinotecan
  synergistic effect of omeprazole and an anticancer drug in combination, leukemia: significantly inhibited
PC-3 cells
  PC-3 growth rate average (%): 33.84%
[4]
  synergistic effect of omeprazole and an anticancer drug in combination, liver cancer: Positive effect
[4]; listed as irinotecan
  synergistic effect of omeprazole and an anticancer drug in combination, liver cancer: significantly inhibited
UACC257 cells
  UACC257 growth rate average (%): 21.87%
[5]
  synergistic effect of omeprazole and an anticancer drug in combination, prostate cancer: Negative effect
SR cells
  SR growth rate average (%): 6.26%
[6]
  synergistic effect of omeprazole and an anticancer drug in combination, pancreatic cancer (PDAC): Positive effect
[6]; listed as irinotecan
  synergistic effect of omeprazole and an anticancer drug in combination, pancreatic cancer (PDAC): significantly inhibited
K562 cells
  K562 growth rate average (%): 46.54%
[7]
  synergistic effect of omeprazole and an anticancer drug in combination, glioblastoma (GBM): Positive effect
[7]; listed as irinotecan
  synergistic effect of omeprazole and an anticancer drug in combination, glioblastoma (GBM): significantly inhibited
[8]
  synergistic effect of omeprazole and an anticancer drug in combination, lung cancer: Negative effect
[9]
  synergistic effect of omeprazole and an anticancer drug in combination, colon cancer: Positive effect
[9]; listed as irinotecan
  synergistic effect of omeprazole and an anticancer drug in combination, colon cancer: significantly inhibited
[10]
  synergistic effect of omeprazole and an anticancer drug in combination, melanoma: Positive effect
[10]; listed as irinotecan
  synergistic effect of omeprazole and an anticancer drug in combination, melanoma: significantly inhibited
[11]
  synergistic effect of omeprazole and an anticancer drug in combination, stomach cancer: Negative effect
ACHN cells
  ACHN growth rate average (%): 42.20%
CAKI-1 cells
  CAKI-1 growth rate average (%): 44.74%
[12]
  synergistic effect of omeprazole and an anticancer drug in combination, ovarian cancer: Negative effect
A549 cells
  A549 growth rate average (%): 16.54%

## CC(=O)O[C@H]1C(=O)[C@@]2(C)[C@H]([C@H](OC(=O)c3ccccc3)[C@]3(O)C[C@H](OC(=O)[C@H](O)[C@@H](NC(=O)c4ccccc4)c4ccccc4)C(C)=C1C3(C)C)[C@]1(OC(C)=O)CO[C@@H]1C[C@@H]2O [Paclitaxel]
UACC62 cells
  UACC62 growth rate average (%): 48.36%
OVCAR-8 cells
  OVCAR-8 growth rate average (%): 12.64%
HCT-116 cells
  HCT-116 growth rate average (%): 17.70%
[1]
  synergistic effect of omeprazole and an anticancer drug in combination, renal cell carcinoma: Negative effect
[2]
  synergistic effect of omeprazole and an anticancer drug in combination, breast cancer: Negative effect
[3]
  synergistic effect of omeprazole and an anticancer drug in combination, leukemia: Positive effect
[3]; listed as paclitaxel
  synergistic effect of omeprazole and an anticancer drug in combination, leukemia: significantly inhibited
PC-3 cells
  PC-3 growth rate average (%): 32.49%
[4]
  synergistic effect of omeprazole and an anticancer drug in combination, liver cancer: Negative effect
UACC257 cells
  UACC257 growth rate average (%): 35.43%
[5]
  synergistic effect of omeprazole and an anticancer drug in combination, prostate cancer: Negative effect
SR cells
  SR growth rate average (%): 94.83%
[6]
  synergistic effect of omeprazole and an anticancer drug in combination, pancreatic cancer (PDAC): Positive effect
[6]; listed as paclitaxel
  synergistic effect of omeprazole and an anticancer drug in combination, pancreatic cancer (PDAC): significantly inhibited
K562 cells
  K562 growth rate average (%): 59.27%
[7]
  synergistic effect of omeprazole and an anticancer drug in combination, glioblastoma (GBM): Positive effect
[7]; listed as paclitaxel
  synergistic effect of omeprazole and an anticancer drug in combination, glioblastoma (GBM): significantly inhibited
[8]
  synergistic effect of omeprazole and an anticancer drug in combination, lung cancer: Positive effect
[8]; listed as paclitaxel
  synergistic effect of omeprazole and an anticancer drug in combination, lung cancer: significantly inhibited
[9]
  synergistic effect of omeprazole and an anticancer drug in combination, colon cancer: Positive effect
[9]; listed as paclitaxel
  synergistic effect of omeprazole and an anticancer drug in combination, colon cancer: significantly inhibited
[10]
  synergistic effect of omeprazole and an anticancer drug in combination, melanoma: Positive effect
[10]; listed as paclitaxel
  synergistic effect of omeprazole and an anticancer drug in combination, melanoma: significantly inhibited
[11]
  synergistic effect of omeprazole and an anticancer drug in combination, stomach cancer: Positive effect
[11]; listed as paclitaxel
  synergistic effect of omeprazole and an anticancer drug in combination, stomach cancer: significantly inhibited
ACHN cells
  ACHN growth rate average (%): 0.91%
CAKI-1 cells
  CAKI-1 growth rate average (%): 17.70%
[12]
  synergistic effect of omeprazole and an anticancer drug in combination, ovarian cancer: Negative effect
A549 cells
  A549 growth rate average (%): 22.67%
